Earlier results on one compound are cited in US6589744B2, “Method and kit for identification for nucleic acid modification enzymes and inhibitors thereof” (Syngenta Participations AG, priority 2001, dated 2003).

The structures appear in SMILES notation.

For this data set, the target named is T1, T4 DNA ligase (Enterobacteria phage T4, UniProt P00970).
T1 sequence (P00970 1-487): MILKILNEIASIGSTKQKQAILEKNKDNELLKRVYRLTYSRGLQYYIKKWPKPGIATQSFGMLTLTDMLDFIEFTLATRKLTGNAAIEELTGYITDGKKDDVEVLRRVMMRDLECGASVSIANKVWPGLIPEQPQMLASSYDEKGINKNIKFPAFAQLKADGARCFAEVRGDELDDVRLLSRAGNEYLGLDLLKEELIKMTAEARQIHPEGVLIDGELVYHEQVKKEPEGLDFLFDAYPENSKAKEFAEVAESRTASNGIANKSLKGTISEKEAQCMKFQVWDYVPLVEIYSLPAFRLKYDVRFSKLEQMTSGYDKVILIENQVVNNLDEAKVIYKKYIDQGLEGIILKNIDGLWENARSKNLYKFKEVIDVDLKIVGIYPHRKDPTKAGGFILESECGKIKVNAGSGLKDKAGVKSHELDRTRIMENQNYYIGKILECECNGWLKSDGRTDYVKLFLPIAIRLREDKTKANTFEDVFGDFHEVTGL
The following applies: previously determined, radiolabeled substrates and PAGE gel shift assays (Montecucco et al.).

What is called IC50 is the midpoint of a concentration-inhibition curve. Regarding `COc1cccc2c1C(=O)c1c(O)c3c(c(O)c1C2=O)C[C@@](O)(C(=O)CO)C[C@@H]3O[C@H]1C[C@H](N)[C@@H](O)[C@H](C)O1` [Epirubicin, epirubicin], the IC50 is 2700 nM.
